For one assay, the target named is T1, PACAP-R2 (Homo sapiens, UniProt P32241).
T1 construct: expressed in transfected cells; host or cells: CHO cells
T1 sequence (P32241 31-457): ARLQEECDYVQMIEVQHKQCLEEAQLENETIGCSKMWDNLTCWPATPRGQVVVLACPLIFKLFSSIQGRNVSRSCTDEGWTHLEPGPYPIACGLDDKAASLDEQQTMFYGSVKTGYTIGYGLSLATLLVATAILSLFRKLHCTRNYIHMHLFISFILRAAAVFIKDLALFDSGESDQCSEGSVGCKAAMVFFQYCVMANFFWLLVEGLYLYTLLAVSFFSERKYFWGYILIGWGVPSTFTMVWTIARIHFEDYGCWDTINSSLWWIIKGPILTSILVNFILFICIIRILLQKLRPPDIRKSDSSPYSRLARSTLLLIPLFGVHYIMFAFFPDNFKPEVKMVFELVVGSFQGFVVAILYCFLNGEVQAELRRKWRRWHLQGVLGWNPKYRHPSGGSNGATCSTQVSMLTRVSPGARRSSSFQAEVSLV
Nature of the assay: Cyclic AMP SPA on CHO cells transfected with PACAP-R2. Particulars: cAMP SPA, concentration at which 50% of maximum PACAP27 activity is achieved, NA = no detectable activities, read-out: R2 EC50. Type of assay: cell-based. The method in brief: (§1)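 CHO cells expressing human PACAP-R2 or PACAP-R3 were exposed to peptide for 15 min at 37 °C with 100 μM IBMX and protease inhibitors. cAMP was measured by SPA. EC50 is the concentration giving 50% of maximal PACAP27 activity, and R3 selectivity is EC50(R2)/EC50(R3).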

A further assay has as its target T2, PACAP-R3 (Homo sapiens, UniProt P41587).
T2 sequence (P41587 24-438): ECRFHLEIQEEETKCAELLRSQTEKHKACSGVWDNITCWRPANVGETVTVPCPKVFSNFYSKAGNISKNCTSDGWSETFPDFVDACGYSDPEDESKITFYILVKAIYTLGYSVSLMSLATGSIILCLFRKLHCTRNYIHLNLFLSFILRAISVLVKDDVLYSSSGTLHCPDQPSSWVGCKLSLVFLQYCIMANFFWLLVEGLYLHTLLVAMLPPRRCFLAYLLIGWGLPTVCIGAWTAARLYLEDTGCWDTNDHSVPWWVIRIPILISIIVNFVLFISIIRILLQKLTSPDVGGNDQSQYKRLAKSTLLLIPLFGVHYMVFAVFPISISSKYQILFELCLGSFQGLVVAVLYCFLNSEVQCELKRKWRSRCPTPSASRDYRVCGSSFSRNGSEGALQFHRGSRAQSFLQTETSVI
Kind of assay: Cyclic AMP SPA on CHO cells expressing PACAP R3. Particulars: for EC50: cAMP SPA, CHO cells transfected with PACAP-R3, concentration at which 50% of maximum PACAP27 activity is achieved, NA = no detectable activities, read-out: R3 EC50; for R3 Selectivity: ratio of EC50 at R2 versus EC50 at R3. The class given is cell-based. The arrangement: expressed in transfected cells; host or cells: CHO cells (Geneticin selection). The method in brief: as §1

No end group written: not given here. Where only a bound is given, the exact number is not on record here.

Here are results for 39 compounds from US6972319B1, “Pituitary adenylate cyclase activating peptide (PACAP)receptor 3 (R3) agonists and their pharmacological methods of use” (priority 1999, dated 2005).

Consider `CC[C@H](C)[C@H](NC(=O)[C@H](CO)NC(=O)[C@H](CC(N)=O)NC(=O)[C@H](CC(C)C)NC(=O)[C@H](Cc1ccc(O)cc1)NC(=O)[C@H](CCCCN)NC(=O)[C@H](CCCCN)NC(=O)[C@@H](NC(=O)[C@H](C)NC(=O)[C@H](CCSC)NC(=O)[C@H](CCC(N)=O)NC(=O)[C@H](CCCCN)NC(=O)[C@H](CCCNC(=N)N)NC(=O)[C@H](CC(C)C)NC(=O)[C@H](CCCNC(=N)N)NC(=O)[C@@H](NC(=O)[C@H](Cc1ccc(O)cc1)NC(=O)[C@H](CC(N)=O)NC(=O)[C@H](CC(=O)O)NC(=O)[C@@H](NC(=O)[C@H](Cc1ccccc1)NC(=O)[C@@H](NC(=O)[C@H](C)NC(=O)[C@H](CC(=O)O)NC(=O)[C@H](CO)NC(=O)[C@@H](N)Cc1c[nH]cn1)C(C)C)[C@@H](C)O)[C@@H](C)O)C(C)C)C(=O)N[C@@H](CCCCN)C(=O)N[C@@H](CC(N)=O)C(=O)N[C@@H](CCCCN)C(=O)N[C@@H](CCCNC(=N)N)C(=O)N[C@@H](Cc1ccc(O)cc1)C(=O)O` [Peptide R3P59], for which, on PACAP-R2, the EC50 was 10 nM. On PACAP-R3, the EC50 is 0.15 nM and the “R3 Selectivity” value was 70.
In the same order, the values of HSDGIFTKSYSRYRKQMAVKKYLAAVL-NH2 [PAC8] are 43 nM, 47 nM and 1.
HSDGIFTDSYSRYRKQMAVKKYLKAVL-NH2 [PAC24]: the EC50 on PACAP-R2 was 0.3 nM. Further, on PACAP-R3, the EC50 was 0.2 nM and the “R3 Selectivity” value was 1.5.
For “HSDAVFTDNYTRLRKQLAAKKYLNSIKKGGT [Peptide R3P22]” the same measures were 38 nM, 1.6 nM and 24.
As for “HSDAVFTDNYTRLRKQMAKKKYLNSIQNRI [rR3P186]”, on PACAP-R2, the EC50 came to 70 nM. In addition, on PACAP-R3, the EC50 was 1.6 nM and the “R3 Selectivity” value is reported as 44.
For HSDGIFTDSYSRYRKKMAVKKYLAAVL-NH2 [PAC16] the same measures were 0.2 nM, 0.2 nM and 1.
Regarding “HSDAVFTDNYTRLRKQMAAKKYLNSIKNKR [Peptide R3P65]”, at PACAP-R2, the EC50 worked out at 80 nM. At PACAP-R3, the EC50 was 0.6 nM and the “R3 Selectivity” value is recorded as 130.
As for “HSDAVFTDNYTRLRKQVAAKKYLQSILNKRY [Peptide R3P92]”, at PACAP-R2, the EC50 was 2 nM. In addition, at PACAP-R3, the EC50 was 0.02 nM and the “R3 Selectivity” value was 100.
Turning to “H-HSDGIFTDSYSRYRKQMAKKKYLAAVL-NH2 [PAC19]”, the EC50 on PACAP-R2 turned out to be 8 nM. At PACAP-R3, the 50% effective concentration (EC50) amounted to 0.4 nM and the “R3 Selectivity” value amounted to 20.
In the case of “HSDAVFTDNYTRLRKQVAAKKYLNSIKK [Peptide R3P62]”, the EC50 on PACAP-R2 stood at 180 nM. In addition, on PACAP-R3, the EC50 amounted to 1.8 nM and the “R3 Selectivity” value was 100.
In the case of “HSDAVFTDNYTRLRKQMAAKKYLNSIKN [Peptide R3P49]”, on PACAP-R2, the EC50 was found to be 8 nM. On PACAP-R3, the half-maximal effective concentration (EC50) is 0.27 nM and the “R3 Selectivity” value is recorded as 30.
On to “HSDAVFTDNYTRLRKQMAFKKYLNSIKNKR [Peptide R3P100]”, for which the EC50 at PACAP-R2 was 10 nM. In addition, at PACAP-R3, the EC50 was 0.3 nM and the “R3 Selectivity” value is 30.
Regarding “HSDAVFTDNYTRLRKQMAKKKYLNSIPNRI [rR3P181]”, the EC50 at PACAP-R2 came to 280 nM. In addition, on PACAP-R3, the EC50 turned out to be 5.1 nM and the “R3 Selectivity” value turned out to be 50.
In the case of “H-HSDAVFTDNYTRLRKQMAAKKYLNSIKNKD [Peptide R3P155]”, the EC50 at PACAP-R2 is 40 nM. At PACAP-R3, the EC50 worked out at 0.4 nM and the “R3 Selectivity” value stood at 100.
For “H-HSDAVFTDNYTRLRKQMAAKKYLNSISNKR [Peptide R3P129]”, the values for the EC50 on PACAP-R2 and at PACAP-R3 were 50 nM and 1 nM, respectively. The “R3 Selectivity” value at PACAP-R3 is given as 50.
As for “HSDAVFTDNYTRLRKQMAAKKYLNSIKNTR [Peptide R3P149]”, the EC50 at PACAP-R2 came out at 40 nM. For the same compound, at PACAP-R3, the EC50 was found to be 0.5 nM and the “R3 Selectivity” value is given as 80.
Take “HSDAVFTDNYTRLRKQMAAKKYLNSIKNIR [Peptide R3P141]”: on PACAP-R2, the EC50 came out at 20 nM. Moreover, on PACAP-R3, the EC50 came out at 0.2 nM and the “R3 Selectivity” value is 100.
For the compound “HSDAVFTDNYTRLRKQMAAKKYLNSIKNPR [Peptide R3P145]”, the EC50 on PACAP-R2 stood at 50 nM; at PACAP-R3, 0.5 nM. For the same compound, the “R3 Selectivity” value at PACAP-R3 stood at 100.
As to “HSDAVFTDNYTRLRKQMAAKKYLNSIHNKR [Peptide R3P122]”, the EC50 at PACAP-R2 worked out at 10 nM. Moreover, at PACAP-R3, the EC50 was determined as 0.2 nM and the “R3 Selectivity” value is 50.
On to “HSDAVFTDNYTRLRKQMAVKKYLNSIKKKR [Peptide R3P57]”, for which, on PACAP-R2, the EC50 is 42 nM. For the same compound, at PACAP-R3, the EC50 turned out to be 0.23 nM and the “R3 Selectivity” value is 190.
In the same order, the values of “HSDAVFTDNYTRLRKQMAEKKYLNSIKNKR [Peptide R3P99]” are 40 nM, 1 nM and 40.
On to “H-HSDAVFTDNYTRLRKQMAAKKYLNSIKNKH [Peptide R3P159]”, for which the EC50 at PACAP-R2 turned out to be 200 nM. Also, on PACAP-R3, the EC50 worked out at 0.5 nM and the “R3 Selectivity” value is recorded as 400.
As for “Ac-HSDAVFTENYTKLRKQLAAKKYLNDLKKGGT-NH2 [Peptide R3P1]”, the EC50 on PACAP-R2 is over 100 nM. Further, on PACAP-R3, the 50% effective concentration (EC50) came to 2 nM and the “R3 Selectivity” value is over 50.
For “HSDAVFTDNYTRLRKQMAAKKYLNSIFNKR [Peptide R3P120]” the same measures were 10 nM, 0.2 nM and 50.
In the same order, the values of “HSDAVFTDNYTRLRKQMAKKKYLNSIKNRI [rR3P176]” are 300 nM, 2 nM and 150.
As to “H-HSDGIFTESYSRYRKQMAVKKYLAALKKKRYKQRVKNK [Peptide R3P6]”, at PACAP-R2, the EC50 turned out to be 220 nM. In addition, at PACAP-R3, the EC50 stood at 80 nM and the “R3 Selectivity” value is reported as 3.
With “HSDAVFTDNYTRLRKQLAAKKYLNDILKGGT [Peptide R3P23]”, the EC50 on PACAP-R2 was 10 nM. Moreover, at PACAP-R3, the EC50 stood at 0.43 nM and the “R3 Selectivity” value stood at 23.
In the same order, the values of “HSDAVFTDNYTRLRKQMAVKKYLNSIKKK [Peptide R3P58]” are 55 nM, 0.32 nM and 170.
Consider “HSDAVFTDNYTRLRKQMAAKKYLNSIKNER [Peptide R3P137]”, for which, on PACAP-R2, the EC50 came out at 30 nM. Moreover, at PACAP-R3, the half-maximal effective concentration (EC50) turned out to be 0.3 nM and the “R3 Selectivity” value is 100.
Turning to “HSDAVFTDNYTRLRKQMAAKKYLNSIPNKR [Peptide R3P126]”, the EC50 on PACAP-R2 came out at 200 nM. On PACAP-R3, the EC50 came out at 1 nM and the “R3 Selectivity” value is listed as 200.
Take “HSDAVFTDNYTRLRKQVAVKKYLQSILKKR [Peptide R3P88]”: the concentration giving a half-maximal response (EC50) was found to be 0.89 nM on PACAP-R2 and 0.08 nM on PACAP-R3. In addition, at PACAP-R3, the “R3 Selectivity” value is given as 12.
In the case of “HSDAVFTDNYTRLRKQMAHKKYLNSIKNKR [Peptide R3P102]”, the EC50 on PACAP-R2 is 300 nM. For the same compound, at PACAP-R3, the EC50 came out at 60 nM and the “R3 Selectivity” value is 5.
As to “HSDAVFTDNYTRLRKQMAKKKYLNSIRNRI [rR3P191]”, the EC50 at PACAP-R2 was over 200 nM. Besides, on PACAP-R3, the EC50 came to 2.7 nM and the “R3 Selectivity” value is on record as over 80.
For “HSDAVFTDNYTRLRKQMASKKYLNSIQNRI [rR3P188]” the same measures were 150 nM, 2.2 nM and 70.
HSDGIFTDSYSRYRKQMAVKKKLAAVL-NH2 [PAC22]: the 50% effective concentration (EC50) on PACAP-R2 was 2 nM. On PACAP-R3, the concentration giving a half-maximal response (EC50) was found to be 15 nM and the “R3 Selectivity” value is recorded as 0.1.
On to “HSDAVFTDNYTRLRKQMAAKKYLNSIQNRI [rR3P184]”, for which the EC50 on PACAP-R2 was 10 nM; at PACAP-R3 it was 0.37 nM. Further, at PACAP-R3, the “R3 Selectivity” value amounted to 30.
In the case of “HSDAVFTDNYTRLRKQMAVKKYLNSIKK [Peptide R3P41]”, at PACAP-R2, the EC50 turned out to be 8 nM. Moreover, on PACAP-R3, the EC50 came out at 0.08 nM and the “R3 Selectivity” value came to 100.
As for “HSDAVFTDNYTRLRKQMAAKKYLNSIKNKI [Peptide R3P160]”, on PACAP-R2, the EC50 came out at 100 nM. For the same compound, at PACAP-R3, the EC50 was determined as 0.2 nM and the “R3 Selectivity” value came out at 500.
As for HSDGIFTDKYSRYRKQMAVKKYLAAVL-NH2 [PAC9], the EC50 on PACAP-R2 was found to be 0.9 nM. On PACAP-R3, the EC50 came out at 0.7 nM and the “R3 Selectivity” value is given as 1.
